What was measured:
[1] = biological target: T1, recombinant guanylate cyclase reporter cell line (Rattus norvegicus, UniProt P19686+P20595); assay: Effect on a recombinant guanylate cyclase reporter cell line; assay type: cell-based; details: MEC = minimum effective concentration; in some cases means of individual determinations
T1 construct: expressed in transfected cells
T1 sequence (P19686 1-690): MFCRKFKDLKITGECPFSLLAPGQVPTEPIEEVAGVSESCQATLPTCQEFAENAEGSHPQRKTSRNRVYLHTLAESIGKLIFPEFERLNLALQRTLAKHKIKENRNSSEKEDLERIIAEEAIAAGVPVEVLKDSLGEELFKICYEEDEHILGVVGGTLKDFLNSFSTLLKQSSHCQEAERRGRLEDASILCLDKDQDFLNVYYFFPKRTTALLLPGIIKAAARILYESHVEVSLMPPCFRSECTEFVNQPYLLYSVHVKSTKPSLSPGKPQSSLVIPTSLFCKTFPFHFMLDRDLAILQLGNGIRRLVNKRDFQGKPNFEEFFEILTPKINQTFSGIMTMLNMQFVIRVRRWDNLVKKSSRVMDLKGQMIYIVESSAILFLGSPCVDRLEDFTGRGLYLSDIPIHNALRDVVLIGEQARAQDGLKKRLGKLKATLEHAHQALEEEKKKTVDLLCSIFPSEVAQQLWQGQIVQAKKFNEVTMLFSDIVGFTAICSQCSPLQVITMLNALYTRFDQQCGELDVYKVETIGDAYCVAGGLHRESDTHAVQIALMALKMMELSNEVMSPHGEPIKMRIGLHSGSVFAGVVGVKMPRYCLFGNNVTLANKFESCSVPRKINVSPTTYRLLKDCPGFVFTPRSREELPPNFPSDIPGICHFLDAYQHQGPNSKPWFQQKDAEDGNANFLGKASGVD
T1 sequence (P20595 1-619): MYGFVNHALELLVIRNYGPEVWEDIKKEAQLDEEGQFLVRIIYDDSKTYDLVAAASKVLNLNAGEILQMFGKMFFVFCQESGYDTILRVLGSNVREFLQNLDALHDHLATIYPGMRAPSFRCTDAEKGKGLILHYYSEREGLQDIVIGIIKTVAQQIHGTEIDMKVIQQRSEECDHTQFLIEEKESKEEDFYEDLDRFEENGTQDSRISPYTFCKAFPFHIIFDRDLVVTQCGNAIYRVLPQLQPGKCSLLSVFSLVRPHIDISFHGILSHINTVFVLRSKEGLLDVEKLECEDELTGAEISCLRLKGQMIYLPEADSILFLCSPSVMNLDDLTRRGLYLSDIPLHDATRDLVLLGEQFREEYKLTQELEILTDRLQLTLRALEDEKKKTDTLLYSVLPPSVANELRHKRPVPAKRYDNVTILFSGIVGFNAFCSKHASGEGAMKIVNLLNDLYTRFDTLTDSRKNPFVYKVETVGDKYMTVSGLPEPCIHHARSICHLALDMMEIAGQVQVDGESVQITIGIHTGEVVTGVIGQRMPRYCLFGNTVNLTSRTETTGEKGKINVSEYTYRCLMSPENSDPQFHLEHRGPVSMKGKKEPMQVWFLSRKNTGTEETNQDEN
Procedure: B-2. Effect on a Recombinant Guanylate Cyclase Reporter Cell Line
The cellular activity of the compounds of the invention is determined using a recombinant guanylate cyclase reporter cell line, as described in F. Wunder et al., Anal. Biochem. 2005, 339, 104-112. Representative values (MEC=minimum effective concentration) for the compounds of the invention are shown in the table below (Table 1B; in some cases as means of individual determinations): […]

[2] = biological target: T2, human phosphodiesterase 5 (PDE 5) (Homo sapiens, UniProt O76074); assay: Inhibition of human phosphodiesterase 5 (PDE 5); assay type: biochemical; details: PDE 5 preparation from human platelets; in some cases means of individual determinations
T2 construct: PDE 5 preparations are obtained from human platelets by disruption; from tissue; host or cells: human platelets
Procedure: B-3. Inhibition of Human Phosphodiesterase 5 (PDE 5)
PDE 5 preparations are obtained from human platelets by disruption (Microfluidizer®, 800 bar, 3 passes), followed by centrifugation (75 000 g, 60 min, 4° C.) and ion exchange chromatography of the supernatant on a Mono Q 10/10 column (linear sodium chloride gradient, elution with a 0.2-0.3M solution of sodium chloride in buffer (20 mM Hepes pH 7.2, 2 mM magnesium chloride). Fractions having PDE 5 activity are combined (PDE 5 preparation) and stored at −80° C.
To determine their in vitro action on human PDE 5, the test substances are dissolved in 100% DMSO and serially diluted. Typically, dilution series (1:3) from 200 μM to 0.091 μM are prepared (resulting final concentrations in the test: 4 μM to 0.0018 μM). In each case 2 μl of the diluted substance solutions are placed into the wells of microtitre plates (Isoplate-96/200W; Perkin Elmer). Subsequently, 50 μl of a dilution of the above-described PDE 5 preparation are added. The dilution of the PDE 5 preparation is chosen such that during the later incubation less than 70% of the substrate are converted (typical dilution: 1:100; dilution buffer: 50 mM tris/hydrochloric acid pH 7.5, 8.3 mM magnesium chloride, 1.7 mM EDTA, 0.2% BSA). The substrate, [8-^3H] cyclic guanosine-3′,5′-monophosphate (1 μCi/μl; Perkin Elmer), is diluted 1:2000 with assay buffer (50 mM tris/hydrochloric acid pH 7.5, 8.3 mM magnesium chloride, 1.7 mM EDTA) to a concentration of 0.0005 μCi/μl. By addition of 50 μl (0.025 μCi) of the diluted substrate, the enzyme reaction is finally started. The test mixtures are incubated at room temperature for 60 min and the reaction is stopped by adding 25 μl of a suspension of 18 mg/ml yttrium scintillation proximity beads in water (phosphodiesterase beads for SPA assays, RPNQ 0150, Perkin Elmer). The microtitre plates are sealed with a film and left to stand at room temperature for 60 min. Subsequently, the plates are analysed for 30 s per well in a Microbeta scintillation counter (Perkin Elmer). IC50 values are determined using the graphic plot of the substance concentration against percentage PDE 5 inhibition.

With `Cc1nc2c(cc1F)c(-c1nc3c(c(C(N)=O)n1)C(C)(C(F)(F)F)C(=O)N3)nn2Cc1cccc(F)c1F` (single isomer, unassigned; ent-2) [Example 10, ent-2-[1-(2,3-Difluorobenzyl)-5-fluoro-6-methyl-1H-pyrazolo[3,4-b]pyridin-3-yl]-5-methyl-6-oxo-5-(trifluoromethyl)-6,7-dihydro-5H-pyrrolo[2,3-d]pyrimidine-4-carboxamide (enantiomer A)] the MEC [1] was 0.3 µM and the IC50 [2] was 110 nM.
Work on `Cc1nc2c(cc1F)c(-c1nc3c(c(C(N)=O)n1)C(C)(C(F)(F)F)C(=O)N3)nn2Cc1cccc(F)c1F` (single isomer, unassigned; ent-2) [Example 11, ent-2-[1-(2,3-Difluorobenzyl)-5-fluoro-6-methyl-1H-pyrazolo[3,4-b]pyridin-3-yl]-5-methyl-6-oxo-5-(trifluoromethyl)-6,7-dihydro-5H-pyrrolo[2,3-d]pyrimidine-4-carboxamide (enantiomer B)] yielded an MEC [1] of 0.1 µM and an IC50 [2] of 91 nM.
`Cc1nc2c(cc1F)c(-c1nc3c(c(C(N)=O)n1)C(C)(C(F)(F)F)C(=O)N3)nn2Cc1ccccc1F` (single isomer, unassigned; ent-2) [Example 13, ent-2-[5-fluoro-1-(2-fluorobenzyl)-6-methyl-1H-pyrazolo[3,4-b]pyridin-3-yl]-5-methyl-6-oxo-5-(trifluoromethyl)-6,7-dihydro-5H-pyrrolo[2,3-d]pyrimidine-4-carboxamide (enantiomer A)] showed an MEC [1] of 0.1 µM and an IC50 [2] of 600 nM.
`Cc1nc2c(cc1F)c(-c1nc3c(c(C(N)=O)n1)C(C)(C(F)(F)F)C(=O)N3)nn2Cc1ccccc1F` (single isomer, unassigned; ent-2) [Example 14, ent-2-[5-fluoro-1-(2-fluorobenzyl)-6-methyl-1H-pyrazolo[3,4-b]pyridin-3-yl]-5-methyl-6-oxo-5-(trifluoromethyl)-6,7-dihydro-5H-pyrrolo[2,3-d]pyrimidine-4-carboxamide (enantiomer B)] showed an MEC [1] of 0.03 µM and an IC50 [2] of 130 nM.
`Cc1nc2c(cc1F)c(-c1nc3c(c(C(N)=O)n1)C(C)(C(F)(F)F)C(=O)N3)nn2Cc1c(F)ccc(F)c1F` (single isomer, unassigned; ent-2) [Example 16, ent-2-[5-Fluoro-6-methyl-1-(2,3,6-trifluorobenzyl)-1H-pyrazolo[3,4-b]pyridin-3-yl]-5-methyl-6-oxo-5-(trifluoromethyl)-6,7-dihydro-5H-pyrrolo[2,3-d]pyrimidine-4-carboxamide (enantiomer A)] gave an MEC [1] of 0.17 µM and an IC50 [2] of 170 nM.
For `Cc1nc2c(cc1F)c(-c1nc3c(c(C(N)=O)n1)C(C)(C(F)(F)F)C(=O)N3)nn2Cc1c(F)ccc(F)c1F` (single isomer, unassigned; ent-2) [Example 17, ent-2-[5-Fluoro-6-methyl-1-(2,3,6-trifluorobenzyl)-1H-pyrazolo[3,4-b]pyridin-3-yl]-5-methyl-6-oxo-5-(trifluoromethyl)-6,7-dihydro-5H-pyrrolo[2,3-d]pyrimidine-4-carboxamide (enantiomer B)], the MEC [1] was 0.03 µM and the IC50 [2] was 280 nM.
For `Cc1nc2c(cc1F)c(-c1nc3c(c(C(N)=O)n1)C(C)(C(F)(F)F)C(=O)N3)nn2Cc1ncccc1F` (single isomer, unassigned; ent-2) [Example 19, ent-2-{5-Fluoro-1-[(3-fluoropyridin-2-yl)methyl]-6-methyl-1H-pyrazolo[3,4-b]pyridin-3-yl}-5-methyl-6-oxo-5-(trifluoromethyl)-6,7-dihydro-5H-pyrrolo[2,3-d]pyrimidine-4-carboxamide (enantiomer A)], the MEC [1] was 10 µM and the IC50 [2] was 220 nM.
In the case of `Cc1nc2c(cc1F)c(-c1nc3c(c(C(N)=O)n1)C(C)(C(F)(F)F)C(=O)N3)nn2Cc1ncccc1F` (single isomer, unassigned; ent-2) [Example 20, ent-2-{5-Fluoro-1-[(3-fluoropyridin-2-yl)methyl]-6-methyl-1H-pyrazolo[3,4-b]pyridin-3-yl}-5-methyl-6-oxo-5-(trifluoromethyl)-6,7-dihydro-5H-pyrrolo[2,3-d]pyrimidine-4-carboxamide (enantiomer B)], the MEC [1] is reported as 1 µM and the IC50 [2] is reported as 190 nM.
Compound `CC1(C(F)(F)F)C(=O)Nc2nc(-c3nn(Cc4ncccc4F)c4ncc(F)cc34)nc(C(N)=O)c21` (single isomer, unassigned; ent-2) [Example 22, ent-2-{5-Fluoro-1-[(3-fluoropyridin-2-yl)methyl]-1H-pyrazolo[3,4-b]pyridin-3-yl}-5-methyl-6-oxo-5-(trifluoromethyl)-6,7-dihydro-5H-pyrrolo[2,3-d]pyrimidine-4-carboxamide (enantiomer A)] has an MEC [1] of 2 µM and an IC50 [2] of 170 nM.
`CC1(C(F)(F)F)C(=O)Nc2nc(-c3nn(Cc4ncccc4F)c4ncc(F)cc34)nc(C(N)=O)c21` (single isomer, unassigned; ent-2) [Example 23, ent-2-{5-Fluoro-1-[(3-fluoropyridin-2-yl)methyl]-1H-pyrazolo[3,4-b]pyridin-3-yl}-5-methyl-6-oxo-5-(trifluoromethyl)-6,7-dihydro-5H-pyrrolo[2,3-d]pyrimidine-4-carboxamide (enantiomer B)] showed an MEC [1] of 6.5 µM and an IC50 [2] of 1300 nM.
For `CC1(C)C(=O)Nc2nc(-c3nn(Cc4ccccc4F)c4ncccc34)nc(C(N)=O)c21` [Example 1, 2-[1-(2-Fluorobenzyl)-1H-pyrazolo[3,4-b]pyridin-3-yl]-5,5-dimethyl-6-oxo-6,7-dihydro-5H-pyrrolo[2,3-d]pyrimidine-4-carboxamide], the MEC [1] was 0.065 µM and the IC50 [2] was 20 nM.
Work on `CC1(C)C(=O)Nc2nc(-c3nn(Cc4ccccc4F)c4ncc(F)cc34)nc(C(N)=O)c21` [Example 2, 2-[5-Fluoro-1-(2-fluorobenzyl)-1H-pyrazolo[3,4-b]pyridin-3-yl]-5,5-dimethyl-6-oxo-6,7-dihydro-5H-pyrrolo[2,3-d]pyrimidine-4-carboxamide] yielded an MEC [1] of 0.03 µM and an IC50 [2] of 13 nM.
Work on `CC1(C)C(=O)Nc2nc(-c3nn(Cc4ccccc4F)c4cc(Cl)ccc34)nc(C(N)=O)c21` [Example 3, 2-[6-Chloro-1-(2-fluorobenzyl)-1H-indazol-3-yl]-5,5-dimethyl-6-oxo-6,7-dihydro-5H-pyrrolo[2,3-d]pyrimidine-4-carboxamide] yielded an MEC [1] of 0.03 µM and an IC50 [2] of 100 nM.

Source: patent publication US20170233413A1, “SUBSTITUTED ANNULATED PYRIMIDINES AND USE THEREOF” (Bayer Pharma Aktiengesellschaft, priority 2014, published 2017)
